# Test results from US7794723B2, “Antigenic peptides derived from telomerase” (GemVax AS, priority 1998, dated 2010).
# Where no end group is shown, it is not given here.
# What was measured:
# [1] = test system: tumor infiltrating lymphocytes (TILs) obtained from a patient with advanced pancreatic cancer; assay: Reactivity of tumor infiltrating lymphocytes (TILs), standard proliferation assay; format: cell-based, human; conditions: CD3+, CD4+, CD8− T cell line
# Source text: FIGS. 3 and 4 (FIG. 3 and FIG. 4) show the reactivity of tumor infiltrating lymphocytes (TILs) obtained from a patient with advanced pancreatic cancer. The T cells were obtained from a tumor biopsy and were successfully propagated in vitro to establish a T cell line. The T cell line was CD3+, CD4+ and CD8−, and proliferated specifically in response to the telomerase peptides. The results in FIG. 3 show T cells that recognize the peptides with SEQ ID NOs: 2 and 3 when compared to controls with medium alone. The results in FIG. 4 show T cells that recognize the peptide with SEQ ID NO:2. The TILs were expanded by co-culturing with recombinant human interleukin 2 (rIL-2) and tested after 14 days in standard proliferation assay using peptides with SEQ ID NOs: 2, 3, 4 and 7.
# [2] = test system: hTERT expressing target cells (Jurkat) transfected with HLA-A2 (A2/K^b); conditions: FIG. 1; T cells from mice primed with the peptide; target cells pulsed with control peptide (influenza 58-66); different effector to target ratios; 4 hours
# [3] = test system: peripheral blood T cells from a patient with colon cancer; assay: In vitro stimulation of peripheral blood T cells from a cancer patient, T cell proliferative assay (3H-thymidine); format: cell-based, human; conditions: FIG. 2; peptide 30 μg/ml; 10^5 mononuclear cells; cultures without peptide as control
# Protocol: In vitro culture was performed as follows: Triplicates of 105 mononuclear cells were incubated for […] in X-VIVO 10 medium supplemented with 15% pooled heat inactivated human serum in a humidified incubator in 5% CO2. Peptides were present throughout culture at a final concentration of 30 μg/ml in the medium. Cultures without peptide served as control. […] Furthermore, one component of the telomerase specific response in this patient is directed against the peptide with SEQ ID NO:4 described here. […] The figure depicts the results of conventional T cell proliferative assays, where peripheral blood mononuclear cells (10^5) were cultured with peptides as indicated for 7 days in triplicates before harvesting. To measure the proliferative capacity of the cultures, 3H-thymidine (3.7×10^4 Bq/well) was added to the culture overnight before harvesting. Values are given as mean counts per minute (cpm) of the triplicates.
# [4] = FIG. 3, compared to controls with medium alone
sequence,measurement,setting,value
EARPALLTSRLRFIPK [SEQ ID NO:2],recognition of peptide by TIL T cells (proliferation),[1]; [4],recognize
same,recognition of peptide by TIL T cells (proliferation),[1]; FIG. 4,recognize
DGLRPIVNMDYVVGAR [SEQ ID NO:3],recognition of peptide by TIL T cells (proliferation),[1]; [4],recognize
ILAKFLHWL [SEQ ID NO:9],specific cytotoxicity (killing of HLA-A2 transfected Jurkat cells),[2],Specific cytotoxicity above background was observed at all effector to target ratios
GVPEYGCVVNLRKVVNF (GVPEYGCVVNLRKTVVNF) [SEQ ID NO:4],"proliferative response of T cells (3H-thymidine, mean cpm)",[3],proliferative response above background values
